Test results as given in patent US7855205B2, “Pyrimidinyl substituted fused-pyrrolyl compounds useful in treating kinase disorders” (Janssen Pharmaceutica NV, priority 2004, dated 2010).
Where two headings read alike, the source gives them in different places.

Key:
[1] = target: T1, VEGF-R2 (Rattus norvegicus, UniProt O08775); test: VEGF-R2 Screening Assay; type: biochemical; details: 33P-γ-ATP incorporation, 10 μM ATP
T1 construct: polyhistidine (N)
Procedure: Then 1 μL of test compound stock in 100% DMSO was added to the wells resulting in a final concentration of 1% DMSO in the reaction with a 100 μL final reaction volume. The CDK1:Cyclin-B protein was then diluted in 50 mM Tris-HCl pH=8.0, 0.1% BSA at a concentration of 1 ng per μL and 30 μL (30 ng enzyme per test well) was added to each well to initiate the reaction. The reaction was incubated for one hour at 30° C. At the end of the 1 h incubation, the reaction was terminated by aspirating the mixture from the plate and washing the wells twice with PBS containing 100 mM EDTA. The histone-H1 biotinylated peptide substrate became immobilized on the Flashplate™ and the incorporation of ^33P-γ-ATP was measured by reading the plate on a scintillation counter. Inhibition of the enzymatic activity of CDK1 was measured by observing a reduced amount of ^33P-γ-ATP incorporated into the immobilized peptide. The VEGF-R kinase assay was carried out using the CDK kinase assay procedure except that the enzyme was replaced with the VEGF-R2 fusion protein containing a polyhistidine tag at the N-terminus followed by amino acids 786-1343 of the rat VEGF-R2 kinase domain (GenBank Accession #U93306).

[2] = target: T2, CDK1:Cyclin-B (Homo sapiens, UniProt P06493); test: CDK1 Screening Assay; type: biochemical; details: 33P-γ-ATP incorporation, 10 μM ATP
T2 construct: purchased New England Biolabs, Beverly, Mass; 6020; host or cells: insect cells
Procedure: (§1) A kinase reaction mixture was prepared containing 50 mM Tris-HCl pH=8, 10 mM MgCl2, 0.1 mM […], 1 mM DTT, 10 μM ATP, 0.025 μM biotinylated histone-HI peptide substrate and […] per well ^33P-γ-ATP (2000-3000 Ci/mmol). 70 μL of the kinase reaction mixture was dispensed into the well of a streptavidin coated FlashPlate™ (Cat. # SMP103, NEN, Boston, Mass.). Then 1 μL of test compound stock in 100% DMSO was added to the wells resulting in a final concentration of 1% DMSO in the reaction with a 100 μL final reaction volume.
(§2) The CDK1:Cyclin-B protein was then diluted in 50 mM Tris-HCl pH=8.0, 0.1% BSA at a concentration of 1 ng per μL and 30 μL (30 ng enzyme per test well) was added to each well to initiate the reaction. The reaction was incubated for one hour at 30° C. At the end of the 1 h incubation, the reaction was terminated by aspirating the mixture from the plate and washing the wells twice with PBS containing 100 mM EDTA. The histone-H1 biotinylated peptide substrate became immobilized on the Flashplate™ and the incorporation of ^33P-γ-ATP was measured by reading the plate on a scintillation counter. Inhibition of the enzymatic activity of CDK1 was measured by observing a reduced amount of ^33P-γ-ATP incorporated into the immobilized peptide.
The CDK1 used was isolated from insect cells expressing both the human CDK1 catalytic subunit and its positive regulatory subunit cyclin B (New England Biolabs, Beverly, Mass., Cat. #6020).
(§3) • VEGF-R2, HER2 and (Biotin)[…]-Amide • RET kinases • CDK1 (Biotin)[…]-Amide • Aurora-A kinase Biotin-[…]-Amide

[3] = target: T3, Aurora-A (Mus musculus, UniProt P97477); test: Aurora-A Screening Assay; type: biochemical, murine; details: 33P-γ-ATP incorporation, 10 μM ATP
T3 construct: made in house; host or cells: sf9 insect cells
T3 sequence (P97477 1-395): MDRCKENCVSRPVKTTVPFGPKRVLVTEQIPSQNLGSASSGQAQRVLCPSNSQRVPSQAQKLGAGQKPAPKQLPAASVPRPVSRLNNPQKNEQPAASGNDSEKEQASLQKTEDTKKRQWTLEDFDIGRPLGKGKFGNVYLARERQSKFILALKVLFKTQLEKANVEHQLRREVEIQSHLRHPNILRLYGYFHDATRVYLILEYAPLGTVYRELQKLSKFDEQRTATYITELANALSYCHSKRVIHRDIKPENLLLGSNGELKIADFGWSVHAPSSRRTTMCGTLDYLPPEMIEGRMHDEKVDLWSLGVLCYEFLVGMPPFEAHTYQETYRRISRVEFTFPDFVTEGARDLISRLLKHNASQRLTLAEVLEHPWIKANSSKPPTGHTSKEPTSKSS
Procedure: as §1, §2
The Aurora-A kinase assay was carried out using the CDK kinase assay procedure except that the enzyme was replaced with the full length protein encoding the murine Aurora-A (Accession# GB BC014711) expressed and purified from sf9 insect cells.
as §3

[4] = tested on: HeLa cervical adenocarcinoma; test: Inhibition of cell proliferation (14C-thymidine incorporation), HeLa; type: cell-based;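 further: HeLa cells in 96-well scintillating plates, compound for 24 h then 24 h more with 14C-thymidine, counting label built into new DNA against DMSO-only control wells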
[5] = tested on: HCT-116 colon carcinoma; test: Inhibition of cell proliferation (14C-thymidine incorporation), HCT-116; type: cell-based
Procedure: (§4) The ability of a test compound to inhibit the proliferation of cell growth was determined by measuring incorporation of ^14C-labelled thymidine into newly synthesized DNA within the cells. This method was used on cell lines derived from carcinomas originating from several tissues such as HeLa cervical adenocarcinoma (American Type Culture Collection (ATCC), Virginia, Cat. #CCL-2), A375 malignant melanoma (ATCC CRL-1619), HCT-116 colon carcinoma (CCL-247). In this way the effect of a compound on cell growth of cells with many different phenotypes can be determined. Cells were trypsinized and counted and 3000-8000 cells were added to each well of a 96-well CytoStar tissue culture treated scintillating microplate (Amersham #RPNQ0160) in complete medium in a volume of 100 μL. Cells were incubated for 24 hours in complete medium at 37° C. in an atmosphere containing 5% CO2.
(§5) Next, 1 μL of test compound in 100% DMSO was added to the wells of the plate. DMSO only was added to control wells. Cells were incubated for 24 more hours in complete medium at 37° C. in an atmosphere containing 5% CO2. Methyl ^14C-thymidine 56 mCi/mmol (NEN #NEC568 or Amersham #CFA532) was diluted in complete medium and 0.2 uCi/well was added to each well of the CytoStar plate in a volume of 20 μl. The plate was incubated for 24 hours at 37° C. plus 5% CO2 in drug plus ^14C-thymidine. The contents of the plate discarded into a ^14C radioactive waste container by inverting the plate and the plate was washed twice with 200 μL PBS.
(§6) 200 μL of PBS is added to each well. The top of the plate was sealed with a transparent plate sealer and a white plate backing sealer (Packard #6005199) was applied to the bottom of the plate. The degree of methyl ^14C-thymidine incorporation was quantified on a Packard Top Count.

[6] = tested on: A375 malignant melanoma; test: Inhibition of cell proliferation (14C-thymidine incorporation), A375; type: cell-based, human
Procedure: as §4, §5, §6

T1 sequence (O08775 786-1343): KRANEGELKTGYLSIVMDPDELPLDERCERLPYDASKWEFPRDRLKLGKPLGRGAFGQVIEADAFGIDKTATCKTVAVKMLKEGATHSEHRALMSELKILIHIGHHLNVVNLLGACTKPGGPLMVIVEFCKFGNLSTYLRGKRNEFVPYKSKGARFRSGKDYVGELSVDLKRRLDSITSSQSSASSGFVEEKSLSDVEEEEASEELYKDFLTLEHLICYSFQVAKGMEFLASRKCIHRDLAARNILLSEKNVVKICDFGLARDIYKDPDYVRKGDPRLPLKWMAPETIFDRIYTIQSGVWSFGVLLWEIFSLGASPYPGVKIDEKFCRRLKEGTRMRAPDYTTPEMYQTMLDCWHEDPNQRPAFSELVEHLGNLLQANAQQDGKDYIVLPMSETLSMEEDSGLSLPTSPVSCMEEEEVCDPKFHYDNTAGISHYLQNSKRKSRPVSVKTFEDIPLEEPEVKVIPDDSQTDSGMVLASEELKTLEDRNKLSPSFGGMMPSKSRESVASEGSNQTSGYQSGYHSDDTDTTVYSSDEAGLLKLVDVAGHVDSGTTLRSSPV
T2 sequence (P06493 whole entry): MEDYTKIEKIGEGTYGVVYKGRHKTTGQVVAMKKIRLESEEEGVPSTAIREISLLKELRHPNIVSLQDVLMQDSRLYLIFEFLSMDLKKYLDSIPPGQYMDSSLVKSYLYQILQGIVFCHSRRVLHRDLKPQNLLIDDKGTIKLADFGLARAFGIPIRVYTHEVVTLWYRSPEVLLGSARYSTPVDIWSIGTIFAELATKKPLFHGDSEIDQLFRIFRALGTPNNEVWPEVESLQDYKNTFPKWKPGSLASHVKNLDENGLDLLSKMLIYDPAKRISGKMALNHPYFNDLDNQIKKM
T2 sequence (P14635 whole entry partner): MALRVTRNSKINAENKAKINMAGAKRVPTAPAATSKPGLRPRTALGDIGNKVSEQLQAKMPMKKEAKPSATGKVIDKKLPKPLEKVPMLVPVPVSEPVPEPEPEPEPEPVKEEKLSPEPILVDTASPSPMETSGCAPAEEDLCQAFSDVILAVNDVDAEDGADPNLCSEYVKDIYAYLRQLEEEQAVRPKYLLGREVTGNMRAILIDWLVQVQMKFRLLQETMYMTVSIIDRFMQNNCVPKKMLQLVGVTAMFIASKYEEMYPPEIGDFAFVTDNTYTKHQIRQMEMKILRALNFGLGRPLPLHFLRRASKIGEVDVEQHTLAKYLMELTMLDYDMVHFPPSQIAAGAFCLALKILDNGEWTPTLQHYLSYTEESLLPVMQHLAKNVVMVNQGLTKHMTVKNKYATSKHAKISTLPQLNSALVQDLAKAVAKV

| Compound | IC50 [1] [µM] | IC50 [2] [µM] | IC50 [3] [µM] | IC50 ([4]; Homo sapiens) [µM] | IC50 ([5]; Homo sapiens, HCT-116, HCT116) [µM] | IC50 ([6]; Homo sapiens, A-375) [µM] | IC50 [4] [µM] | IC50 ([5]; HCT116) [µM] | IC50 [6] [µM] |
| --- | --- | --- | --- | --- | --- | --- | --- | --- | --- |
| CCc1ccccc1Nc1nccc(-c2c[nH]c3ncccc23)n1 [Cpd 32, (2-Ethylphenyl)-[4-(1H-pyrrolo[2,3-b]pyridin-3-yl)-pyrimidin-2-yl]-amine] | 1.47 | 0.068 | 0.396 | 0.292 | 0.254 | 0.217 | – | – | – |
| Cc1ccccc1Nc1nccc(-c2c[nH]c3ncccc23)n1 [Cpd 8, [4-(1H-Pyrrolo[2,3-b]pyridin-3-yl)-pyrimidin-2-yl]-o-tolyl-amine] | 0.57 | 0.0037 | 0.301 | – | 0.024 | 0.024 | – | – | – |
| CN(C)CCn1cc(-c2ccnc(NC3CCCCC3)n2)c2cccnc21 [Cpd 69, Cyclohexyl-{4-[1-(2-dimethylaminoethyl)-1H-pyrrolo[2,3-b]pyridin-3-yl]-pyrimidin-2-yl}-amine] | – | 10.4 | – | 8.9 | 13.4 | 7.69 | – | – | – |
| CN(C)CCn1cc(-c2ccnc(N[C@H]3CC[C@H](O)CC3)n2)c2cccnc21 [Cpd 74, trans-4-{4-[1-(2-Dimethylaminoethyl)-1H-pyrrolo[2,3-b]pyridin-3-yl]-pyrimidin-2-ylamino}-cyclohexanol] | – | 3.89 | – | 4.53 | 3.76 | 3.02 | – | – | – |
| O=S(=O)(c1ccccc1)n1cc(-c2ccnc(N[C@H]3CC[C@H](O)CC3)n2)c2cccnc21 [Cpd 75, trans-4-[4-(1-Benzenesulfonyl-1H-pyrrolo[2,3-b]pyridin-3-yl)-pyrimidin-2-ylamino]-cyclohexanol] | – | 2.02 | 10 | – | – | – | 1.99 | 1.58 | 2.81 |
| Cn1cc(-c2ccnc(N[C@H]3CC[C@H](O)CC3)n2)c2cccnc21 [Cpd 71, trans-4-[4-(1-Methyl-1H-pyrrolo[2,3-b]pyridin-3-yl)-pyrimidin-2-ylamino]-cyclohexanol] | – | 1.65 | – | 9.51 | 4.46 | 7.15 | – | – | – |
| Cc1cc(OCCN(C)C)ccc1Nc1nccc(-c2c[nH]c3ncccc23)n1 [Cpd 81, [4-(2-Dimethylamino-ethoxy)-2-methyl-phenyl]-[4-(1H-pyrrolo[2,3-b]pyridin-3-yl)-pyrimidin-2-yl]-amine] | – | 1.87 | – | 13.2 | 4.54 | 2.81 | – | – | – |
| Clc1ccc(Nc2nccc(-c3c[nH]c4ncccc34)n2)c(Cl)c1 [Cpd 36, (2,4-Dichlorophenyl)-[4-(1H-pyrrolo[2,3-b]pyridin-3-yl)-pyrimidin-2-yl]-amine] | – | 0.0223 | 1 | 0.467 | 0.277 | 0.448 | – | – | – |
| CNCCn1cc(-c2ccnc(N[C@H]3CC[C@H](O)CC3)n2)c2cccnc21 [Cpd 73, trans-4-{4-[1-(2-Methylaminoethyl)-1H-pyrrolo[2,3-b]pyridin-3-yl]-pyrimidin-2-ylamino}-cyclohexanol] | – | 7.02 | – | 4.16 | 3.51 | 3.95 | – | – | – |
| OCCn1cc(-c2ccnc(NC3CCCCC3)n2)c2cccnc21 [Cpd 70, Cyclohexyl-{4-[1-(2-hydroxyethyl)-1H-pyrrolo[2,3-b]pyridin-3-yl]-pyrimidin-2-yl}-amine] | – | 3.21 | – | 6.29 | 3.97 | 5.93 | – | – | – |
| Cc1cc(CCO)ccc1Nc1nccc(-c2c[nH]c3ncccc23)n1 [Cpd 44] | 0.493 | – | 0.142 | 0.011 | 0.00398 | 0.00845 | – | – | – |
| CNCCOc1ccc(Nc2nccc(-c3c[nH]c4ncccc34)n2)c(C)c1 [Cpd 80, [4-(2-Methylamino-ethoxy)-2-methyl-phenyl]-[4-(1H-pyrrolo[2,3-b]pyridin-3-yl)-pyrimidin-2-yl]-amine] | 10 | 2.31 | – | 2.58 | 3.87 | 4.54 | – | – | – |
| Cn1cc(-c2ccnc(NC3CCCCC3)n2)c2cccnc21 [Cpd 66, Cyclohexyl-[4-(1-methyl-1H-pyrrolo[2,3-b]pyridin-3-yl)pyrimidin-2-yl]-amine] | – | – | – | 52.2 | ≥ 10 | ≥ 10 | – | – | – |
| Cc1cccc(Nc2nccc(-c3c[nH]c4ncccc34)n2)c1 [Cpd 9, [4-(1H-Pyrrolo[2,3-b]pyridin-3-yl)-pyrimidin-2-yl]-m-tolyl-amine] | 0.0967 | 0.057 | 0.136 | – | 0.25 | 0.34 | – | – | – |
| CN(C)CC(O)Cn1cc(-c2ccnc(N[C@H]3CC[C@H](O)CC3)n2)c2cccnc21 (relative stereo) [Cpd 76, trans-4-{4-[1-(3-Dimethylamino-2-hydroxy-propyl)-1H-pyrrolo[2,3-b]pyridin-3-yl]-pyrimidin-2-ylamino}-cyclohexanol] | 10 | 1.35 | – | 0.21 | 0.157 | 0.298 | – | – | – |
